Assay results published in PubChem BioAssay (NCI).
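Briefly, cells in 96-well plates were exposed to five compound concentrations for 48 h, and endpoints were estimated by linear interpolation. GI50 marks 50% less growth. Definition used: TGI = concentration required for complete inhibition of growth.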

Assays:
Assay in all cases: inhibition of tumour cell growth, NCI panel, 48 h
[1] = tested on: HCC-2998 colon
[2] = tested on: MOLT-4 leukemia
[3] = tested on: A549 NSCLC
[4] = tested on: COLO 205 colon
[5] = tested on: CCRF-CEM leukemia
[6] = tested on: SK-MEL-2 melanoma
[7] = tested on: SF-295 CNS
[8] = tested on: SK-MEL-5 melanoma
[9] = tested on: UACC-257 melanoma
[10] = tested on: MALME-3M melanoma

CCC(=O)Sc1ccccc1C(=O)Nc1ccc(Cl)cc1
GI50 [1]: 18.5 µM
TGI [1]: 47 µM
GI50 [2]: 4.67 µM
TGI [2]: 92.6 µM
GI50 [3]: 11.7 µM
TGI [3]: > 100 µM
GI50 [4]: 13.6 µM
TGI [4]: 32.1 µM
GI50 [5]: 4.22 µM
TGI [5]: > 100 µM
GI50 [6]: 25.7 µM
TGI [6]: > 100 µM
GI50 [7]: 5.08 µM
TGI [7]: 25.4 µM
GI50 [8]: 4.22 µM
TGI [8]: 17.4 µM
GI50 [9]: 31.7 µM
TGI [9]: > 100 µM
GI50 [10]: 8.76 µM
TGI [10]: 51.2 µM

COc1cc(OC)cc(N2CCC(c3c(N)nc(N)nc3Cl)CC2)c1
TGI [1]: > 100 µM
TGI [2]: > 100 µM
TGI [3]: > 100 µM
TGI [4]: > 100 µM
TGI [5]: > 100 µM
TGI [6]: > 100 µM
TGI [7]: > 100 µM
TGI [8]: 97.7 µM
TGI [9]: > 100 µM
TGI [10]: > 100 µM

COC(=O)c1ccc(CN2CCc3c([nH]c4ccccc34)C2CO)o1 (configuration not stated)
TGI [1]: > 10 µM
TGI [2]: > 10 µM
TGI [3]: > 10 µM
TGI [4]: > 10 µM
TGI [5]: > 10 µM
TGI [7]: > 10 µM
TGI [8]: > 10 µM
TGI [9]: > 10 µM
TGI [10]: > 10 µM

CCN(CC)c1ccc(NC(C(=O)c2ccccc2)c2ccccc2)cc1 (configuration not stated)
GI50 [1]: 2.81 µM
TGI [1]: 8.62 µM
GI50 [2]: 0.696 µM
TGI [2]: 24.4 µM
GI50 [3]: 10.5 µM
TGI [3]: 54 µM
GI50 [4]: 3.41 µM
TGI [4]: 11.9 µM
GI50 [5]: 2.29 µM
TGI [5]: 13.5 µM
GI50 [6]: 3.44 µM
TGI [6]: 16.8 µM
GI50 [7]: 3.34 µM
TGI [7]: 12.6 µM
GI50 [8]: 2 µM
TGI [8]: 4.66 µM
GI50 [9]: 4.86 µM
TGI [9]: 22.1 µM
GI50 [10]: 2.76 µM
TGI [10]: 7.44 µM

COc1ccc(C2C3=C(NC(=O)C2C#N)c2ccc4ccccc4c2OCC3)cc1 (configuration not stated)
GI50 [2]: > 100 µM
TGI [2]: > 100 µM
GI50 [3]: 38.9 µM
TGI [3]: > 100 µM
GI50 [4]: > 100 µM
TGI [4]: > 100 µM
GI50 [5]: > 100 µM
TGI [5]: > 100 µM
GI50 [6]: > 100 µM
TGI [6]: > 100 µM
GI50 [7]: 27.4 µM
TGI [7]: > 100 µM
GI50 [8]: > 100 µM
TGI [8]: > 100 µM
GI50 [9]: 36.5 µM
TGI [9]: 82.8 µM
GI50 [10]: 34.9 µM
TGI [10]: 77.3 µM

C=CCN1C(=O)CS/C1=N\NC(=O)c1c(C)nc2sccn12
TGI [1]: > 100 µM
TGI [2]: > 100 µM
TGI [3]: > 100 µM
TGI [4]: > 100 µM
TGI [5]: > 100 µM
TGI [6]: > 100 µM
TGI [7]: > 100 µM
TGI [8]: > 100 µM
TGI [9]: > 100 µM
TGI [10]: > 100 µM

[Cu+2].[Cu+2].[O-]c1ccccc1C=Nc1ccccc1[O-].[O-]c1ccccc1C=Nc1ccccc1[O-]
GI50 [1]: 10.3 µM
TGI [1]: 22.4 µM
GI50 [2]: 2.99 µM
TGI [2]: 9.97 µM
GI50 [3]: 7.56 µM
TGI [3]: 27.8 µM
GI50 [4]: 2.26 µM
TGI [4]: 5.11 µM
GI50 [5]: 3.33 µM
TGI [5]: 21.3 µM
GI50 [6]: 11.5 µM
TGI [6]: 24.4 µM
GI50 [7]: 8.01 µM
TGI [7]: 27.6 µM
GI50 [8]: 3.3 µM
TGI [8]: 12 µM
GI50 [9]: 10.4 µM
TGI [9]: 22.3 µM
GI50 [10]: 13.7 µM
TGI [10]: 27.3 µM
